Test results from patent US8906897B2, “Antimicrobial agents based on hemin derivatives” (Obschestvo S Ogranichennoi Otvetstvennostiyu …, priority 2009, dated 2014).

Test system: human leukocytes
Test: Cytotoxic activity against human leukocytes
Conditions: for toxic effect on human blood leukocytes (in words): concentrations of up to 1 mM, 3 h
Method: Total leukocytes were isolated from human blood by unforced sedimentation using freshly collected venous blood from a healthy donor.
Blood (10 mL) added with 10 units/mL heparin was exposed for 2.5 h in the dark at a temperature of 15 to 18° C. A light-colored liquid supernatant (4 mL) was collected over the layer of sedimenting erythrocytes, washed three times with balanced Hanks's salt solution, and resuspended in the RPMI-1640 medium (added with 8% fetal bovine serum, 2 mM L-glutamine, and 10 mM HEPES; hereinafter, the complete medium).
The concentrations of leukocytes and erythrocytes in the suspension were determined by counts in Goryachev's chamber, after which the suspension was adjusted to a leukocyte concentration of (1.0±0.1)×10^6 cells/mL with the complete medium.
To determine the cytotoxicity of the tested compounds for human leukocytes, the cell suspension was transferred to wells of sterile 96-well plates, tested compounds were added with serial twofold dilutions (the range of tested concentrations was from 3.2 to 100 μM for GrD and gramicidin S; from 8 to 500 μM for compound XIII; and from 8 to 1000 μM for compounds V, VI, VII, VIII, IX, X, XI, XIV, XV, XIX, and Hem), and the mixture was carefully stirred. The experiment was performed in two replicas.
As controls served cells added with an equivalent amount of the solvent in which tested compounds were prepared, namely: water for compounds VII and X; an aqueous solution of DMSO for compounds V, VI, VIII, and IX; and DMSO for GrD, gramicidin S, Hem, XI, XIII, XIV, XV, and XIX. An additional control was an additive-free leukocyte suspension.
Cells were incubated with tested compounds for 3 h (37° C., 5% CO2, 100% humidity). Leukocyte death values were quantified using fluorescence microscopy. Staining with propidium iodide (it permeates only into dead cells nuclei) and Hoechst 33342 (it stains all nuclei) was used to recognize dead and living cells. Cells were incubated for 15 min in plates with propidium iodide and Hoechst 33342 (37° C., 5% CO2), and then the plates were placed under a microscope for analysis.
The dead cell fraction was derived from the fluorescence images of cells obtained in the blue (Hoechst 33342) and red (propidium iodide) spectral ranges using an Axio Observer (Zeiss, Germany) fluorescence microscope equipped with a 10× objective lens (Plan-Neofluar 10×/0.3). The following sets of fluorescence filters were used. For propidium iodide: a 530/585-nm bandpass excitation filter, a 600-nm cut-off dichroic minor, and a 615-nm longpass barrier filter for analysis. For Hoechst 33342: a 359/372-nm bandpass excitation filter, a 395-nm cut-off dichroic mirror, and a 397-nm longpass barrier filter for analysis.
A digital camera recorded three types of cell images: (a) an image in the transmitted white light; (b) a blue fluorescence image obtained with UV excitation, and (c) a red fluorescence image obtained with green light excitation. At least four fields of view were photographed per well in various regions of a well.

| SMILES | Death of leukocytes in the presence of 1 mM of compound (3 h incubation) | concentration at which a weak toxic effect on leukocytes appears (3 h incubation) | Death of leukocytes in the presence of 1 mM of compound (3 h incubation, listed as hemin) | toxic effect on human blood leukocytes (in words) |
| --- | --- | --- | --- | --- |
| C=CC1=C(C)c2cc3[n-]c(cc4nc(cc5[n-]c(cc1n2)c(C)c5CCC(=O)NCCO)C(CCC(=O)NCCO)=C4C)c(C)c3C=C.[Cl-].[Fe+3] [Compound XIV, Protohemin IX 6,7-bis-N-(2-Hydroxyethyl)amide] | 17.5 ± 0.7% | ~1000 µM | – | – |
| C=CC1=C(C)c2cc3[n-]c(cc4[n-]c(cc5nc(cc1n2)C(C)=C5C=C)c(C)c4CCC(=O)O)c(CCC(=O)O)c3C.[Cl-].[Fe+3] [Hem, hemin] | 40 ± 2% | – | 40% | – |
| C=CC1=C(C)c2cc3[n-]c(cc4nc(cc5[n-]c(cc1n2)c(C)c5CCC(=O)N[C@@H](CO)C(=O)OC)C(CCC(=O)N[C@@H](CO)C(=O)OC)=C4C)c(C)c3C=C.[Cl-].[Fe+3] [VIII] | 6.1 ± 0.3% | – | – | did not cause the death |
| C=CC1=C(C)c2cc3[n-]c(cc4nc(cc5[n-]c(cc1n2)c(C)c5CCC(=O)N[C@@H](CCCNC(=N)N)C(=O)OC)C(CCC(=O)N[C@@H](CCCNC(=N)N)C(=O)OC)=C4C)c(C)c3C=C.[Cl-].[Fe+3] [VII] | 8.0 ± 0.8% | – | – | did not cause the death |
